Experimental data taken from patent publication US7390790B2, “Ring-substituted diphenylazetidinones, process for their preparation, medicaments comprising these compounds, and their use” (Sanofi-Aventis Deutschland GmbH, priority 2002, dated 2008).

Tested on: cholesterol absorption
Assay: Cholesterol absorption test: uptake of 14C-cholesterol by the liver
Format: in vivo, mouse
Details: dose at which the uptake of 14C-cholesterol by the liver was halved (50%), based on a control group; peroral test substance immediately prior to 14C-cholesterol test meal; interpolated from dose-effect curve
Excerpt: Effect of the compounds of the invention on cholesterol absorption and 3H-taurocholic acid excretion using fecal excrement of mice, rats or hamsters
NMRI mice, Wistar rats, or Golden Syrian hamsters (in groups of n=4-6) were kept in metabolic cages, where they were fed with a standard diet (Altromin, Lage (Lippe)). The afternoon prior to the administration of the radioactive tracers (14C-cholesterol), the feed was removed and the animals were adapted to grates.
Additionally, the animals were labeled s.c. with 3H-TCA (taurocholic acid) (for example 1 μCi/mouse up to 5 μCi/rat) 24 hours prior to the peroral administration of the test meal (14C-cholesterol in Intralipid® 20, Pharmacia-Upjohn).
Cholesterol absorption test: 0.25 ml/mouse Intralipid® 20 (Pharmacia-Upjohn) ((spiked with 0.25 μCi of 14C-cholesterol in 0.1 mg of cholesterol) was administered perorally by gavage.
Test substances were prepared separately in 0.5% methylcellulose (Sigma)/5% Solutol (BASF, Ludwigshafen) or a suitable vehicle.
The administration volume of the test substance was 0.5 ml/mouse. The test substance was administered immediately prior to the test meal (Intralipid labeled with 14C-cholesterol) (cholesterol absorption test).
The feces were collected over a period of 24 h. Fecal elimination of 14C-cholesterol and 3H-taurocholic acid (TCA) was determined after 24 hours.
The livers were removed and homogenized, and aliquots were incinerated in an oximate (Model 307, Packard) to determine the amount of 14C-cholesterol that had been taken up/absorbed.
The amount of ^14C-cholesterol taken up by the liver was based on the administered dose. The ED50 values were interpolated from a dose-effect curve as the dose at which the uptake of 14C-cholesterol by the liver was halved (50%), based on a control group.

SMILES | ED50 (liver) [mg/mouse]
COc1ccc(C2C(CCC(O)c3ccc(F)cc3)C(=O)N2c2ccc(CNC(=O)c3ccc(Oc4ccc(C(=O)NCC(O)C(O)C(O)C(O)CO)cc4)cc3)cc2)cc1 (stereo not drawn) [Example I, 2,3,4,5,6-Pentahydroxyhexylamide of 4-(4-{4-[3-[3-(4-fluorophenyl)-3-hydroxypropyl]-2-(4-methoxyphenyl)-4-oxoazetidin-1-yl]benzylcarbamoyl}phenoxy)benzoic acid] | <0.1
O=C(NCc1ccc(N2C(=O)C(CCC(O)c3ccccc3)C2c2ccccc2)cc1)c1ccc(Oc2ccc(C(=O)NCC(O)C(O)C(O)C(O)CO)cc2)cc1 (stereo not drawn) [Example II, 2,3,4,5,6-Pentahydroxyhexylamide of 4-(4-{4-[3-(3-hydroxy-3-phenylpropyl)-2-oxo-4-phenylazetidin-1-yl]benzylcarbamoyl}phenoxy)benzoic acid] | <1.0
O=C1C(CCC(O)c2ccc(F)cc2)C(c2ccc(OCc3ccc(C[N+]45CCN(CC4)CC5)cc3)cc2)N1c1ccc(F)cc1.[Br-] (stereo not drawn) [Example IV, 1-[4-(4-{1-(4-Fluorophenyl)-3-[3-(4-fluorophenyl)-3-hydroxypropyl]-4-oxoazetidin-2-yl}phenoxymethyl)benzyl]-4-aza-1-azoniabicyclo[2.2.2]octane bromide] | <0.1
O=C1C(CCC(O)c2ccc(F)cc2)C(c2ccc(OCc3ccc(CNCC(O)C(O)C(O)C(O)CO)cc3)cc2)N1c1ccc(F)cc1 (stereo not drawn) [Example V, 1-(4-Fluorophenyl)-3-[3-(4-fluorophenyl)-3-hydroxypropyl]-4-(4-{4-[(2,3,4,5,6-pentahydroxyhexylamine)methyl]benzyloxy}phenyl)azetidin-2-one] | <0.1
O=C(Cc1ccc(C[N+]23CCN(CC2)CC3)cc1)NCc1ccc(C2C(CCC(O)c3ccc(F)cc3)C(=O)N2c2ccc(F)cc2)cc1.O=C([O-])C(F)(F)F (stereo not drawn) [Example XV, 1-{4-[(4-{1-(4-Fluorophenyl)-3-[3-(4-fluorophenyl)-3-hydroxypropyl]-4-oxoazetidin-2-yl}-benzylcarbamoyl)-methyl]-benzyl}-4-aza-1-azoniabicyclo[2.2.2]octane trifluoroacetate] | <1.0
O=C1C(CCC(O)c2ccc(F)cc2)C(c2ccc(OCc3cccc(CNCC(O)C(O)C(O)C(O)CO)c3)cc2)N1c1ccc(F)cc1 (stereo not drawn) [IX, 1-(4-Fluorophenyl)-3-[3-(4-fluorophenyl)-3-hydroxypropyl]-4-(4-{3-[(2,3,4,5,6-pentahydroxyhexylamine)methyl]benzyloxy}phenyl)azetidin-2-one] | <0.1
O=C1C(CCC(O)c2ccc(F)cc2)C(c2ccc(OCc3ccccc3C[N+]34CCN(CC3)CC4)cc2)N1c1ccc(F)cc1.[Br-] (stereo not drawn) [VI, 1-[2-(4-{1-(4-Fluorophenyl)-3-[3-(4-fluorophenyl)-3-hydroxypropyl]-4-oxoazetidin-2-yl}phenoxymethyl)benzyl]-4-aza-1-azoniabicyclo[2.2.2]octane bromide] | 0.3
O=C1C(CCC(O)c2ccc(F)cc2)C(c2ccc(OCc3ccccc3CNCC(O)C(O)C(O)C(O)CO)cc2)N1c1ccc(F)cc1 (stereo not drawn) [VII, 1-(4-Fluorophenyl)-3-[3-(4-fluorophenyl)-3-hydroxypropyl]-4-(4-{2-[(2,3,4,5,6-pentahydroxyhexylamine)methyl]benzyloxy}phenyl)azetidin-2-one] | <1.0
O=C1C(CCC(O)c2ccc(F)cc2)C(c2ccc(OCc3cccc(C[N+]45CCN(CC4)CC5)c3)cc2)N1c1ccc(F)cc1.[Br-] (stereo not drawn) [VIII, 1-[3-(4-{1-(4-Fluorophenyl)-3-[3-(4-fluorophenyl)-3-hydroxypropyl]-4-oxoazetidin-2-yl}phenoxymethyl)benzyl]-4-aza-1-azoniabicyclo[2.2.2]octane bromide] | <1.0
